The values that follow come from patent US6284768A, “Src family SH2 domain inhibitors” (Boehringer Ingelheim Pharmaceuticals, Inc., priority 1999, dated 2001).

This test deals with T1, p56lck GST-SH2 (lck SH2 domain) (Homo sapiens, UniProt P06239).
T1 construct: GST (N)
As to the kind of experiment: Receptor-ligand equilibrium binding constants by surface plasmon resonance (biosensor), lck SH2 domain.

Where [1] appears, read: Table 1, compounds of formula (II).

T1 sequence (P06239 127-224 limits assumed): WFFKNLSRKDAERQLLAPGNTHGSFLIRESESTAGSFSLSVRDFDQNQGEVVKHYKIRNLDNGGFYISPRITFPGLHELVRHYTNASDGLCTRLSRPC

`Cc1ccn(Cc2ccc(OC(F)(F)F)cc2)c(=O)c1NC(=O)[C@H](Cc1ccc(CC(=O)O)cc1)NC(=O)Cc1cccc2ccccc12` [Compound 53, 3-[2'-(S)-(1'"-Naphthyl)acetlyamino-3'-(4"-carboxymethyl)benzene]propanoylamino-1-(4-trifluoromethoxybenzyl)-4-methyl-2-pyridone]: the Kd under setting [1] stood at 12.7 µM.

`COc1ccc(Cn2ccc(C)c(NC(=O)[C@H](Cc3ccc(CC(=O)O)cc3)NC(=O)Cc3ccc(CC(C)(C)C)cc3)c2=O)cc1` [Compound 163]: binding under setting [1] was put at a Kd of 1.1 µM. Still for that read-out and setting: in the case of `COc1ccc(Cn2ccc(C)c(NC(=O)[C@H](Cc3ccc(CC(=O)O)cc3)NC(=O)Cc3cc4ccccc4[nH]3)c2=O)cc1` [Compound 41] it was 4.7 µM. On the same count and under the same terms, in the case of `COc1ccc(Cn2ccc(C)c(NC(=O)[C@H](Cc3ccc(NC(=O)C(=O)O)cc3)NC(=O)Cc3cccc(N(C)C)c3)c2=O)cc1` [Compound 49] it was 2.1 µM; in that of `COc1ccc(Cn2ccc(C)c(NC(=O)[C@H](Cc3ccc(C(F)(F)P(=O)(O)O)cc3)NC(C)=O)c2=O)cc1` [Compound 65], 1.3 µM; in that of `COc1ccc(Cn2ccc(C)c(NC(=O)[C@H](Cc3ccc(CC(=O)O)cc3)NC(=O)Cc3cccc(OC(C)(C)C)c3)c2=O)cc1` [Compound 164], 1.6 µM. For the compound `COCCOCn1ccc(C)c(NC(=O)C(Cc2ccc(C(C)(C)C(=O)O)cc2)NC(=O)Cc2cccc3ccccc23)c1=O` (stereo not drawn) [Compound 188], binding under setting [1] was put at a Kd of 45 µM.

Take `COc1ccc(Cn2ccc(C)c(NC(=O)[C@H](Cc3ccc(CC(=O)O)cc3)NC(=O)[C@@H](C)c3ccc4cc(OC)ccc4c3)c2=O)cc1` [Compound 62]: the affinity under setting [1], expressed as Kd, was 8.8 µM.

Under setting [1], `Cc1ccn(Cc2ccc(OC(C)C)cc2)c(=O)c1NC(=O)[C@H](Cc1ccc(CC(=O)O)cc1)NC(=O)Cc1cccc2ccccc12` [Compound 51] had a Kd of over 69 µM. Same read-out and setting: for `Cc1ccn(CCCCC(C)C)c(=O)c1NC(=O)C(Cc1ccc(C(C)(C)C(=O)O)cc1)NC(=O)OCc1ccccc1` (racemic) [Compound 146, 3-[2'-(R,S)-Benyloxycarbonylamino-3'-[4"-(1'"-carboxy-1'"-methyl)ethyl]benzene]propanoylamino-1-(5-methylhexyl)-4-methyl-2-pyridone] the value was 13 µM. For the setting “Table 2, compounds of formula (III)”, `COc1ccc(Cn2ncc(C)c(NC(=O)[C@H](Cc3ccc(CC(=O)O)cc3)NC(=O)Cc3cccc4ccccc34)c2=O)cc1` [Compound 243] had a Kd of 35 µM. With `COc1ccc(Cn2ccc(C)c(NC(=O)C(Cc3ccc(C(C)(C)C(=O)O)cc3)NC(=O)C(F)(F)F)c2=O)cc1` (stereo not drawn) [Compound 176], under setting [1], the Kd stood at 1.8 µM. Same read-out and setting: in the case of `COc1ccc(Cn2ccc(C)c(NC(=O)[C@H](Cc3ccc(C(C)(C)C(=O)O)cc3)NC(=O)Cc3ccc(N(C)C)cc3)c2=O)cc1` [Compound 99] it was 0.13 µM; in that of `COC1CCC(Cn2ccc(C)c(NC(=O)C(Cc3ccc(C(C)(C)C(=O)O)cc3)NC(=O)Cc3ccc4ccccc4c3)c2=O)CC1` (stereo not drawn) [Compound 239], 3.2 µM; in that of `Cc1ccn(CC2CCOC2)c(=O)c1NC(=O)C(Cc1ccc(C(C)(C)C(=O)O)cc1)NC(=O)C(C)(C)c1ccc2ccccc2c1` (stereo not drawn) [Compound 212], 23 µM. As for `COc1ccc(Cn2ccc(C)c(NC(=O)[C@H](Cc3ccc(CC(=O)O)cc3)NC(=O)Cc3cc(=O)oc4cc(N(C)C)ccc34)c2=O)cc1` [Compound 64], the Kd under setting [1] came to 17 µM. `COc1ccc(Cn2ccc(C)c(NC(=O)[C@H](Cc3ccc(CC(=O)O)cc3)NC(=O)COc3ccc4ccccc4c3)c2=O)cc1` [Compound 166] displayed a Kd under setting [1] of 1.7 µM. On the same count and under the same terms, for `Cc1ccn(CC2CCCCC2)c(=O)c1NC(=O)[C@H](Cc1ccc(CC(=O)O)cc1)NC(=O)C(C)(C)C` [Compound 67] the value was 64 µM. The same measure, in the same setting: for `COCCOCCn1ccc(C)c(NC(=O)C(Cc2ccc(C(C)(C)C(=O)O)cc2)NC(=O)Cc2ccc3ccccc3c2)c1=O` (stereo not drawn) [Compound 143] the value was 6 µM; for `COc1ccc(Cn2ccc(C)c(NC(=O)[C@H](Cc3ccc(NC(=O)C(=O)O)cc3)NC(=O)c3csc(NS(=O)(=O)c4ccc(Cl)cc4)n3)c2=O)cc1` [Compound 14], 4.2 µM; for `COc1ccc(Cn2c(C)cc(C)c(NC(=O)[C@H](Cc3ccc(CC(=O)O)cc3)NC(=O)Cc3cccc4ccccc34)c2=O)cc1` [Compound 91], 4.8 µM. The compound `COc1ccc(Cn2ccc(C)c(NC(=O)[C@H](Cc3ccc(N(O)C(=O)C(=O)O)cc3)NC(=O)Cc3ccc(N(C)C)cc3)c2=O)cc1` [Compound 26] returned a Kd under setting [1] of 4.3 µM. For the compound `COc1ccc(Cn2ccc(C)c(NC(=O)[C@H](Cc3ccc(NC(=O)C(=O)O)cc3)NC(=O)N(C)c3cccc4ccccc34)c2=O)cc1` [Compound 25], the Kd under setting [1] came to 2.1 µM. Under setting [1], `CCCCCCn1ccc(C)c(NC(=O)C(Cc2ccc(C(C)(C)C(=O)O)cc2)NC(=O)Cc2cccs2)c1=O` (stereo not drawn) [Compound 206] showed a Kd of 0.89 µM. On the same count and under the same terms, in the case of `CCCCCCn1cc(C(=O)OC)c(C)c(NC(=O)C(Cc2ccc(C(C)(C)C(=O)O)cc2)NC(=O)C(C)(C)c2ccc3ccccc3c2)c1=O` (stereo not drawn) [Compound 121] it was 2.7 µM; in that of `COc1ccc(Cn2ccc(C)c(NC(=O)[C@H](Cc3ccc(NC(=O)C(=O)O)cc3)NC(=O)Cc3ccc(C(C)C)cc3)c2=O)cc1` [Compound 43], 1.9 µM. As for `COc1ccc(Cn2ccc(C)c(NC(=O)[C@H](Cc3ccc(CC(=O)O)cc3)NC(=O)C3(c4ccccc4)CCCCC3)c2=O)cc1` [Compound 79], under setting [1], the Kd stood at 11 µM.

Under setting [1], `COC1CCC(Cn2ccc(C)c(NC(=O)C(Cc3ccc(C(C)(C)C(=O)O)cc3)NC(=O)C(C)(C)c3ccc4ccccc4c3)c2=O)CC1` (stereo not drawn) [Compound 235] came in with a Kd of 6.2 µM. Same read-out and setting: for `Cc1ccn(C/C=C/c2ccccc2)c(=O)c1NC(=O)C(Cc1ccc(C(C)(C)C(=O)O)cc1)NC(=O)C(C)(C)c1ccc2ccccc2c1` (racemic) [Compound 116] the value was 3.2 µM. On the same count and under the same terms, for `COc1ccc(Cn2cc(Br)c(C)c(NC(=O)[C@H](Cc3ccc(-n4nnc(C(=O)O)c4C(=O)O)cc3)NC(=O)Cc3ccc4ccccc4c3)c2=O)cc1` [Compound 241, 3-[2'-(S)-(2""-Naphthylacetyl)amino-3'-[4"-(4'",5'"-dicarboxytriazolyl)]benzene]propanoylamino-1-(4-methoxybenzyl)-5-bromo-4-methyl-2-pyridone] the value was 0.06 µM. The same measure, in the same setting: in the case of `COc1ccc(Cn2ccc(C)c(NC(=O)[C@H](Cc3ccc(CC(=O)O)cc3)NC(=O)C(C)(C)c3ccccc3)c2=O)cc1` [Compound 76] it was 8.6 µM. Under setting [1], `COc1ccc(Cn2ccc(C)c(NC(=O)[C@H](Cc3ccc(NC(=O)C(=O)O)cc3)NC(=O)Cc3c[nH]c4ccccc34)c2=O)cc1` [Compound 5] displayed a dissociation constant (Kd) of 1.3 µM. Same read-out and setting: in the case of `COc1ccc(Cn2ccc(C)c(NC(=O)[C@H](Cc3ccc(C(C)(C)C(=O)O)cc3)NC(=O)[C@H](C)c3cccc4ccccc34)c2=O)cc1` [Compound 44] it was 1.5 µM; in that of `COc1ccc(Cn2ccc(C)c(NC(=O)[C@H](Cc3ccc(C(CO)C(=O)O)cc3)NC(=O)OCc3ccccc3)c2=O)cc1` (stereo partly drawn) [Compound 50, 3-[2-(S)-Benzyloxycarbonylamino-3-[4'-(1"-(R,S)-carboxy-2"-hydroxy)ethyl]benzene]propanoylamino-1-(4-methoxybentyl)-4-methyl-2-pyridone], 39 µM; in that of `COCCCCn1ccc(C)c(NC(=O)C(Cc2ccc(C(C)(C)C(=O)O)cc2)NC(=O)C(C)(C)c2ccc3ccccc3c2)c1=O` (stereo not drawn) [Compound 236], 1.4 µM.

Under setting [1], `CCCCCCn1cc(Br)c(C)c(NC(=O)C(Cc2ccc(C(C)(C)C(=O)O)cc2)NC(=O)Cc2ccc3ccccc3c2)c1=O` (stereo not drawn) [Compound 238] came in with a Kd of 0.72 µM. Still for that read-out and setting: for `COc1ccc(Cn2ccc(C)c(NC(=O)[C@H](Cc3ccc(C(F)(F)P(=O)(O)O)cc3)NC(=O)Cc3cccc4ccccc34)c2=O)cc1` [Compound 66] the value was 0.43 µM; for `COc1ccc(Cn2ccc(C)c(NC(=O)[C@H](Cc3ccc(C(C)(C)C(=O)O)cc3)NC(=O)Cc3ccc(Br)cc3)c2=O)cc1` [Compound 110], 0.18 µM; for `COc1ccc(Cn2ccc(C)c(NC(=O)[C@H](Cc3ccc(NC(=O)C(=O)O)cc3)NC(=O)Cc3csc(-c4cnccn4)n3)c2=O)cc1` [Compound 17], 3.4 µM.

The compound `Cc1ccn(CC2CCCCC2)c(=O)c1NC(=O)[C@H](Cc1ccc(CC(=O)O)cc1)NC(=O)Cc1cccc2ccccc12` [Compound 68] came in with an equilibrium dissociation constant (Kd) under setting [1] of 12 µM.

`Cc1ccn(CC2CCOC2)c(=O)c1NC(=O)C(Cc1ccc(C(C)(C)C(=O)O)cc1)NC(=O)Cc1cccc2ccccc12` (stereo not drawn) [Compound 210] had a dissociation constant Kd under setting [1] of 15 µM. On the same count and under the same terms, in the case of `CCCCCCn1ccc(C)c(NC(=O)C(Cc2ccc(C(C)(C)C(=O)O)cc2)NC(=O)Cc2ccccc2OC)c1=O` (stereo not drawn) [Compound 207] it was 1.7 µM. In turn, `COc1ccc(Cn2ccc(C)c(NC(=O)[C@H](Cc3ccc(C(C)(C)C(=O)O)cc3)NC(=O)Cc3ccccc3)c2=O)cc1` [Compound 120] had a Kd under setting [1] of 0.43 µM. `Cc1ccn(Cc2ccoc2)c(=O)c1NC(=O)C(Cc1ccc(C(C)(C)C(=O)O)cc1)NC(=O)C(C)(C)c1ccc2ccccc2c1` (stereo not drawn) [Compound 203] yielded a Kd under setting [1] of 11 µM.

Turning to `Cc1ccn(C/C=C/c2ccccc2)c(=O)c1NC(=O)C(Cc1ccc(C(C)(C)C(=O)O)cc1)NC(=O)C(C)(C)c1ccc2ccccc2c1` (stereo not drawn) [Compound 177], the equilibrium dissociation constant (Kd) under setting [1] is 3.2 µM.

`COc1c(F)c(F)c(Cn2ccc(C)c(NC(=O)C(Cc3ccc(C(C)(C)C(=O)O)cc3)NC(=O)Cc3ccc4ccccc4c3)c2=O)c(F)c1F` (stereo not drawn) [Compound 153] registered a Kd under setting [1] of 2.1 µM.

For the compound `COc1ccc(Cn2ccc(C)c(NC(=O)[C@H](Cc3ccc(CC(=O)O)cc3)NC(=O)Cc3cccc(O)c3)c2=O)cc1` [Compound 165], binding under setting [1] was characterised by a dissociation constant (Kd) of 2.8 µM. Same read-out and setting: for `COc1ccc(Cn2ccc(C)c(NC(=O)[C@H](Cc3ccc(NC(=O)C(=O)O)cc3)NC(=O)Cc3nc(-c4ccccc4)sc3C)c2=O)cc1` [Compound 15] the value was 1.8 µM; for `COc1ccc(Cn2ccc(C)c(NC(=O)[C@H](Cc3ccc(NC(=O)C(=O)O)cc3)NC(=O)Cc3ccccc3)c2=O)cc1` [Compound 102], 1.9 µM; for `CCCCCCn1cc(C(=O)OC)c(C)c(NC(=O)C(Cc2ccc(C(C)(C)C(=O)O)cc2)NC(=O)Cc2ccc3ccccc3c2)c1=O` (stereo not drawn) [Compound 240], 0.74 µM. `COc1ccc(Cn2ccc(C)c(NC(=O)[C@H](Cc3ccc(CC(=O)O)cc3)NC(=O)Cc3ccccc3)c2=O)cc1` [Compound 58] came in with a dissociation constant (Kd) under setting [1] of 5.6 µM.
